Patent US5164190A, “Subsaturated transdermal drug delivery device exhibiting enhanced drug flux” (Theratech, Inc., priority 1990, dated 1992)
Where a name gives a salt, the structure may show the parent alone. Read-outs that look alike come from different tables or passages of the source.

Tests used:
[1] = cumulative permeation at 24 hr through skin in vitro; format: in vitro ADME, human; conditions: for Cumulative Permeation: 24 hr
Description: (§1) The term "skin flux" intends the rate of transfer of drug across skin as measured by the method of Merritt and Cooper (J Controlled Release (1984) 1:161). The units of flux are preferably μg/cm^2 /hr.
The following examples further illustrate the invention and its unique characteristics. These examples are not intended to limit the invention in any manner. In the following examples in vitro steady state transdermal flux across human cadaver skin was determined using the method of Merritt and Cooper, supra. Unless otherwise indicated percentages and proportions are by volume. […]
[…]. The matrix containing 8% estradiol was saturated; the others were subsaturated.
The matrix containing 8% estradiol was saturated; the others were subsaturated.

[2] = format: in vitro ADME, human
Description: as §1
The following examples further illustrate the invention and its unique characteristics. These examples are not intended to limit the invention in any manner. In the following examples in vitro steady state transdermal flux across human cadaver skin was determined using the method of Merritt and Cooper, supra. Unless otherwise indicated percentages and proportions are by volume.
Formulations of progesterone at varying concentrations were made by mixing progesterone with the indicated ingredients and applied to cadaver skin. The meanings of the abbreviations that appear in the table are: Gly=glycerine; GDO=glycerol dioleate; ML=methyl laurate; OA=oleic acid; GMO=glycerol monooleate.
Additional progesterone systems were formulated and tested as in Example 1. Abbreviations are as in Example 1. Progesterone was present at saturation in system 1 and below saturation in systems 2-6.
Formulations of the hydrophilic drugs oxybutynin HCl and mecamylamine HCl were prepared and tested as in Examples 1 and 2. The formulations of Table 3 containing oxybutynin HCl at 40 mg/ml were saturated and the formulations of Table 4 containing 80 mg/ml of mecamylamine HCl were saturated. All other systems were at drug concentrations below saturation.
[…]. The matrix containing 30% norethindrone acetate was saturated; all others were subsaturated.

For `C[C@]12CC[C@@H]3c4ccc(O)cc4CC[C@H]3[C@@H]1CC[C@@H]2O` [estradiol], the “Cumulative Permeation” value ([1]; Table 7, 1% estradiol, acrylic adhesive matrix with 20% sorbitan monooleate, S.D. 1.40) was 11.36 μg/cm^2, the “Cumulative Permeation” value ([1]; Table 7, 2% estradiol, acrylic adhesive matrix with 20% sorbitan monooleate, S.D. 6.24) was 28.31 μg/cm^2 and the “Cumulative Permeation” value ([1]; Table 7, 3% estradiol, acrylic adhesive matrix with 20% sorbitan monooleate, S.D. 6.64) was 40.88 μg/cm^2. For the same compound, the “Cumulative Permeation” value ([1]; Table 7, 4% estradiol, acrylic adhesive matrix with 20% sorbitan monooleate, S.D. 4.46) was 44.94 μg/cm^2, the “Cumulative Permeation” value ([1]; Table 7, 6% estradiol, acrylic adhesive matrix with 20% sorbitan monooleate, S.D. 3.03) was 22.56 μg/cm^2 and the “Cumulative Permeation” value ([1]; Table 7, 8% estradiol (saturated), acrylic adhesive matrix with 20% sorbitan monooleate, S.D. 5.25) was 12.93 μg/cm^2. For the same compound, the “Cumulative Permeation” value ([1]; Table 8, 1% estradiol, acrylic adhesive matrix without permeation enhancer, S.D. 1.84) was 9.33 μg/cm^2, the “Cumulative Permeation” value ([1]; Table 8, 2% estradiol, acrylic adhesive matrix without permeation enhancer, S.D. 1.42) was 16.55 μg/cm^2 and the “Cumulative Permeation” value ([1]; Table 8, 3% estradiol, acrylic adhesive matrix without permeation enhancer, S.D. 2.16) was 21.21 μg/cm^2. The “Cumulative Permeation” value ([1]; Table 8, 4% estradiol, acrylic adhesive matrix without permeation enhancer, S.D. 0.64) was 16.11 μg/cm^2, the “Cumulative Permeation” value ([1]; Table 8, 6% estradiol, acrylic adhesive matrix without permeation enhancer, S.D. 0.27) was 18.42 μg/cm^2 and the “Cumulative Permeation” value ([1]; Table 8, 8% estradiol (saturated), acrylic adhesive matrix without permeation enhancer, S.D. 3.93) was 9.20 μg/cm^2. For the same compound, the “maximum permeation versus estradiol concentration” value ([1]; matrices with sorbitan monolaurate, ointments EtOH/H2O/Gly/GMO/ML 20/60/5/7.5/7.5) was “maximum permeation was observed at estradiol concentrations below saturation”.

`CCN(CC)CC#CCOC(=O)C(O)(c1ccccc1)C1CCCCC1` (stereo not shown) [Oxybutyrin, oxybutynin HCl] gave a Flux ([2]; Table 3 system 1, 5 mg/ml, 40/53/5/2 EtOH/H2O/Gly/GMO, N=3) of 5.6 ± 0.9 μg/cm^2 /hr, a Flux ([2]; Table 3 system 1, 10 mg/ml, 40/53/5/2 EtOH/H2O/Gly/GMO, N=6) of 13.3 ± 2.6 μg/cm^2 /hr and a Flux ([2]; Table 3 system 1, 20 mg/ml, 40/53/5/2 EtOH/H2O/Gly/GMO, N=12) of 16.9 ± 5.2 μg/cm^2 /hr. The Flux ([2]; Table 3 system 1, 40 mg/ml (saturated), 40/53/5/2 EtOH/H2O/Gly/GMO, N=4) was 29.1 ± 11.2 μg/cm^2 /hr, the Flux ([2]; Table 3 system 2, 5 mg/ml, 40/54/5/1 EtOH/H2O/Gly/GMO, N=3) was 8.0 ± 1.4 μg/cm^2 /hr and the Flux ([2]; Table 3 system 2, 10 mg/ml, 40/54/5/1 EtOH/H2O/Gly/GMO, N=6) was 10.1 ± 3.3 μg/cm^2 /hr. It also gave a Flux ([2]; Table 3 system 2, 20 mg/ml, 40/54/5/1 EtOH/H2O/Gly/GMO, N=12) of 17.5 ± 5.1 μg/cm^2 /hr, a Flux ([2]; Table 3 system 2, 40 mg/ml (saturated), 40/54/5/1 EtOH/H2O/Gly/GMO, N=5) of 38.8 ± 18.9 μg/cm^2 /hr and a Flux ([2]; Table 3 system 3, 5 mg/ml, 30/63/5/2 EtOH/H2O/Gly/GMO, N=3) of 2.2 ± 0.2 μg/cm^2 /hr. It also gave a Flux ([2]; Table 3 system 3, 10 mg/ml, 30/63/5/2 EtOH/H2O/Gly/GMO, N=9) of 8.3 ± 3.8 μg/cm^2 /hr, a Flux ([2]; Table 3 system 3, 20 mg/ml, 30/63/5/2 EtOH/H2O/Gly/GMO, N=12) of 14.8 ± 6.1 μg/cm^2 /hr and a Flux ([2]; Table 3 system 3, 40 mg/ml (saturated), 30/63/5/2 EtOH/H2O/Gly/GMO, N=6) of 23.9 ± 10.0 μg/cm^2 /hr. For the same compound, the Flux ([2]; Table 3 system 4, 5 mg/ml, 30/64/5/1 EtOH/H2O/Gly/GMO, N=3) was 1.7 ± 0.3 μg/cm^2 /hr, the Flux ([2]; Table 3 system 4, 10 mg/ml, 30/64/5/1 EtOH/H2O/Gly/GMO, N=6) was 5.4 ± 2.5 μg/cm^2 /hr and the Flux ([2]; Table 3 system 4, 20 mg/ml, 30/64/5/1 EtOH/H2O/Gly/GMO, N=15) was 13.6 ± 5.2 μg/cm^2 /hr. It also gave a Flux ([2]; Table 3 system 4, 40 mg/ml (saturated), 30/64/5/1 EtOH/H2O/Gly/GMO, N=6) of 27.5 ± 13.1 μg/cm^2 /hr.

For `CC(C)NCC(O)COc1cccc2[nH]ccc12` (stereo not shown) [pindolol free base, pindolol], the “dependence of flux on drug concentration” value ([2]; ointment and solid matrix systems) was “classic Fickian dependence of flux on drug concentration”.

`CC(=O)[C@H]1CC[C@H]2[C@@H]3CCC4=CC(=O)CC[C@]4(C)[C@H]3CC[C@]12C` [progesterone] showed a Flux ([2]; Table 1 system 1, 75.0 mg/ml (saturated), 60/22.5/10/2.5/2.5/2.5 EtOH/H2O/Gly/GDO/ML/OA, N=8) of 2.12 ± 0.47 μg/cm^2 /hr, a Flux ([2]; Table 1 system 2, 50 mg/ml, 60/22.5/10/2.5/2.5/2.5 EtOH/H2O/Gly/GDO/ML/OA, N=18) of 4.51 ± 1.37 μg/cm^2 /hr and a Flux ([2]; Table 1 system 3, 25 mg/ml, 60/22.5/10/2.5/2.5/2.5 EtOH/H2O/Gly/GDO/ML/OA, N=3) of 5.52 ± 1.38 μg/cm^2 /hr. It also gave a Flux ([2]; Table 1 system 4, 75 mg/ml (saturated), 60/22.5/10/2.5/2.5/2.5 EtOH/H2O/Gly/GMO/ML/OA, N=8) of 3.35 ± 2.18 μg/cm^2 /hr, a Flux ([2]; Table 1 system 5, 50 mg/ml, 60/22.5/10/2.5/2.5/2.5 EtOH/H2O/Gly/GMO/ML/OA, N=18) of 7.63 ± 3.00 μg/cm^2 /hr and a Flux ([2]; Table 1 system 6, 37.5 mg/ml, 60/22.5/10/2.5/2.5/2.5 EtOH/H2O/Gly/GMO/ML/OA, N=6) of 8.18 ± 0.90 μg/cm^2 /hr. The Flux ([2]; Table 1 system 7, 25 mg/ml, 60/22.5/10/2.5/2.5/2.5 EtOH/H2O/Gly/GMO/ML/OA, N=18) was 6.37 ± 1.88 μg/cm^2 /hr, the Flux ([2]; Table 1 system 8, 10 mg/ml, 60/22.5/10/2.5/2.5/2.5 EtOH/H2O/Gly/GMO/ML/OA, N=3) was 1.84 ± 0.33 μg/cm^2 /hr and the “flux at subsaturated concentrations versus at saturation” value ([2]; Table 1 systems, except 8) was “significantly greater”. It also gave a Flux ([2]; Table 2 system 1, 50 mg/ml (saturated), 60/22.5/10/2.5/2.5/2.5 EtOH/H2O/Gly/GDO/ML/OA, N=12) of 6.01 ± 1.73 μg/cm^2 /hr, a Flux ([2]; Table 2 system 2, 30 mg/ml, 60/28/10/1/1 EtOH/H2O/Gly/GMO/ML, N=3) of 13.03 ± 3.35 μg/cm^2 /hr and a Flux ([2]; Table 2 system 3, 25 mg/ml, 60/28/10/1/1 EtOH/H2O/Gly/GMO/ML, N=3) of 12.98 ± 2.06 μg/cm^2 /hr. The Flux ([2]; Table 2 system 4, 20 mg/ml, 60/28/10/1/1 EtOH/H2O/Gly/GMO/ML, N=9) was 15.89 ± 6.81 μg/cm^2 /hr, the Flux ([2]; Table 2 system 5, 15 mg/ml, 60/28/10/1/1 EtOH/H2O/Gly/GMO/ML, N=12) was 13.13 ± 1.87 μg/cm^2 /hr and the Flux ([2]; Table 2 system 6, 10 mg/ml, 60/28/10/1/1/1 EtOH/H2O/Gly/GMO/ML, N=5) was 11.13 ± 1.98 μg/cm^2 /hr. The “fluxes at concentrations below saturation versus at saturation” value ([2]; Table 2 systems) was “significantly greater than at saturation”.
